Measured values: patent US7863332B2, “Biaromatic compound activators of PPARγ receptors and cosmetic/pharmaceutical compositions comprised thereof” (Galderma Research & Development, priority 2004, dated 2011)
pKd: −log10 of the molar value.

Experiments:
PPARδ = target: T1, PPARδ (Homo sapiens, UniProt Q03181); assay: Cross-curve PPAR transactivation test (PPARδ); type: cell-based; settings: HeLN cells, Gal-hPPARδ, luciferase reporter; cross curves against reference agonist, Schild regression; n.a means not active; read-out: PPARs delta Kd app
T1 sequence (Q03181 171-441 limits assumed): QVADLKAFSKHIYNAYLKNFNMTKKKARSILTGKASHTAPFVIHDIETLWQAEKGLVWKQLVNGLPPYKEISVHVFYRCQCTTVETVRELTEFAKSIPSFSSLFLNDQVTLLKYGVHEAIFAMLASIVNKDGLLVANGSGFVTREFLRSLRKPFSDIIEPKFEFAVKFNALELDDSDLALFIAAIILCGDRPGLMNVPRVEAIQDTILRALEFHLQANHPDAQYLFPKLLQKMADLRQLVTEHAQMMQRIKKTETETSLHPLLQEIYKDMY
Description: (§1) The activation of PPAR receptors with an agonist (activator) in HeLN cells leads to the expression of a reporter gene, luciferase, which, in the presence of a substrate, generates light. The modulation of the PPAR receptors is measured by quantifying the luminescence produced after incubating the cells in the presence of a reference agonist. The ligands displace the agonist from its site. The measurement of the activity is performed by quantifying the light produced. This measurement makes it possible to determine the modulatory activity of the compounds according to the invention by determining the constant that is the affinity of the molecule for the PPAR receptor. Since this value can fluctuate depending on the basal activity and the expression of the receptor, it is referred to as Kd apparent (KdApp in nM).
(§2) To determine this constant, “cross curves” of the test product against a reference agonist are produced in a 96-well plate: 10 concentrations of the test product plus a concentration 0 are arranged in a line, and 7 concentrations of the agonist plus a concentration 0 are arranged in a column. This is 88 measurement points for 1 product and 1 receptor. The remaining 8 wells are used for repeatability controls.
(§3) Measurements are also taken for total agonist controls with the same products.
(§4) The HeLN cell lines used are stable transfectants containing the plasmids ERE-βGlob-Luc-SV-Neo (reporter gene) and PPAR (α, δ, γ) Gal-hPPAR. These cells are inoculated into 96-well plates at a rate of 10 000 cells per well in 100 μl of DMEM medium without phenol red and supplemented with 10% of defatted calf serum. The plates are then incubated at 37° C. and 7% CO2 for 16 hours.
(§5) The various dilutions of the test products and of the reference ligand are added at a rate of 5 μl per well. The plates are then incubated for 18 hours at 37° C. and 7% CO2. The culture medium is removed by turning over and 100 μl of a 1:1 PBS/luciferin mixture are added to each well. After 5 minutes, the plates are read by the luminescence detector.

PPARγ = target: T2, PPARγ (Homo sapiens, UniProt P37231); assay: Cross-curve PPAR transactivation test (PPARγ); type: cell-based; settings: HeLN cells, Gal-hPPARγ, luciferase reporter; cross curves against reference agonist, Schild regression; n.a means not active; read-out: PPAR gamma Kd app
T2 sequence (P37231 238-505 limits assumed): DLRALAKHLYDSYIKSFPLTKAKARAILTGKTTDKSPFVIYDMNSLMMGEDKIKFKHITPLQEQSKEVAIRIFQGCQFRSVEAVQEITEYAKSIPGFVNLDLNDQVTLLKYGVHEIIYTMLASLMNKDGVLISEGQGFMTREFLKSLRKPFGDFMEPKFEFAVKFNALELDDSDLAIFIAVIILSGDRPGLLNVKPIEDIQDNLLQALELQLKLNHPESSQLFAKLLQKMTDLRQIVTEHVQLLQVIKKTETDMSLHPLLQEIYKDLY
Description: as §1, §2, §3, §4, §5

PPARα = target: T3, PPARα (Homo sapiens, UniProt Q07869); assay: Cross-curve PPAR transactivation test (PPARα); type: cell-based; settings: HeLN cells, Gal-hPPARα, luciferase reporter; cross curves against reference agonist, Schild regression; n.a means not active; read-out: PPAR alpha Kd app
T3 sequence (Q07869 202-468 limits assumed): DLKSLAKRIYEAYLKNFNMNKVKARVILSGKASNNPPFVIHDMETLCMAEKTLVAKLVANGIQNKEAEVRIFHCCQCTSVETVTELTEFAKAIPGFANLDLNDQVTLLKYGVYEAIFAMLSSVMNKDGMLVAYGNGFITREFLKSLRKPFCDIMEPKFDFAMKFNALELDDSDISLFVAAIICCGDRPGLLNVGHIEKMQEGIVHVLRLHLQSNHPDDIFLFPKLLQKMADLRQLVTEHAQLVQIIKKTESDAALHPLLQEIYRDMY
Description: as §1, §2, §3, §4, §5

[1] = system: sebocytes obtained from rat preputial glands; assay: Rat sebocyte culture test; type: cell-based; settings: 120 h, 14C acetate-labelled lipids, 5 days incubation + 24 hours label, read-out: Triglycerides AC50
Text: Sebocytes in culture obtained from rat preputial gland constitute a pertinent model for evaluating sebaceous function modulatory compounds as described by Rosenfield et al. (Mechanisms of androgen induction of sebocyte differentiation. Rosenfield R. L., Deplewski D., Kentsis A., Ciletti N., Dermatology, 1998; 196(1):43-6). This model has especially been used to characterize PPAR compounds with potential in dermatology (Rat preputial sebocyte differentiation involves peroxisome proliferator-activated receptors. Rosenfield R. L., Kentsis A., Deplewski D., Ciletti N., J. Invest. Dermatol., 1999 February; 112(2):226-32). These sebocytes have functional similarities close to those of human skin sebocytes (response to androgens and to anti-androgens, accumulation of specific sebum lipids, expression of specific markers of the sebaceous gland). The data resulting from this test are considered as pertinent of potential activity on the human sebaceous gland.
Protocol for culturing sebocytes obtained from rat preputial glands
The preputial glands are obtained from 10-week-old male rats. They are extracted under anesthesia with isoflurane, before euthanizing the animals. The glands are then digested enzymatically with trypsin (0.25% trypsin+collagenase H 1.5 mg/ml/gland). The cells are cultured for 24 hours in 24-well plates (37° C., 5% CO2) in DMEM culture medium supplemented with various factors, especially fetal calf serum (10%), glutamine (1%), a cocktail of antibiotics and anti-mycotic agents and insulin (5 μg/ml). The cells are then placed in Cellgro medium supplemented with various factors (Mediatech®) and the test compounds are then added in response doses (duplicate). After incubation for 5 days, 10 μl of radio labeled (^14C) acetate are added to the culture medium (0.2 μCi/μl, Amersham). The cells are incubated for 24 hours and then washed and recovered after digestion with trypsin. The radiolabelled lipids are then extracted using a methanol/dichloromethane mixture (1/2) and placed on a silica TLC plate (Merck®) using a loading robot. The lipids are then separated and quantified after revelation using a Phosphorimager (analysis by image analysis software). For each compound, the AC50 (concentration for which 50% of the effect of the compound is obtained) is determined. The results are expressed as nanomolar concentration for the following specific sebaceous gland lipids: Triglycerides and/or Cholesterol esters.

Row | pKd (PPARδ) | pKd (PPARγ) | melting point | Compound | pKd (PPARα) | AC50 [1]
1 | 6.30 | 8.70 | 101 °C | CCCCCCCNC(=O)N(C)c1cccc(-c2ccc(CCC(=O)O)cc2)c1 [Example 2, 3-[3′-(3-heptyl-1-methylureido)biphenyl-4-yl]propanoic acid] | – | –
2 | – | – | 100 to 101 °C | CCCCCCCNC(=O)N(C)c1cccc(-c2ccc(CCC(=O)NO)cc2)c1 [Example 6, 3-[3′-(3-heptyl-1-methylureido)biphenyl-4-yl]-N-hydroxypropionamide] | – | –
3 | – | – | 95 to 96 °C | CCCCCCCNC(=S)N(C)c1cccc(-c2ccc(CCC(=O)O)cc2)c1 [Example 8, 3-[3′-(3-heptyl-1-methylthioureido)biphenyl-4-yl]propanoic acid] | – | –
4 | – | – | 130 to 131 °C | CCCCCCCNC(=O)N(C)c1cccc(-c2ccc(/C=C/C(=O)O)cc2F)c1 [Example 9, (E)-3-[2-fluoro-3′-(3-heptyl-1-methylureido)biphenyl-4-yl]acrylic acid] | – | –
5 | – | – | 80 to 82 °C | CCCCCCCNC(=O)N(C)c1cccc(-c2ccc(CCC(=O)O)cc2F)c1 [Example 10, 3-[2-fluoro-3′-(3-heptyl-1-methylureido)biphenyl-4-yl]propanoic acid] | – | –
6 | – | – | 119 to 120 °C | CCCCCCNC(=O)N(C)c1cccc(-c2ccc(CCC(=O)O)cc2)c1 [Example 11, 3-[3′-(3-hexyl-1-methylureido)biphenyl-4-yl]propanoic acid] | – | –
7 | 5.70 | 8.40 | – | CCCCCCCNC(=O)N(C)c1cccc(-c2ccc(/C=C/C(=O)O)cc2OCc2ccccc2)c1 [Example 24, (E)-3-[2-benzyloxy-3′-(3-heptyl-1-methylureido)biphenyl-4-yl]acrylic acid] | 6.30 | –
8 | 6.92 | 9.60 | – | CCCCCCCNC(=O)N(C)c1cccc(-c2ccc(CCC(=O)O)cc2OCCC)c1 [Example 25, 3-[3′-(3-heptyl-1-methylureido)-2-propoxybiphenyl-4-yl]propanoic acid] | 6.30 | –
9 | 5.70 | 8.70 | – | CCCCCCCNC(=O)N(C)c1cccc(-c2ccc(CCC(=O)O)cc2OCCC(F)(F)F)c1 [Example 37, 3-[3′-(3-heptyl-1-methylureido)-2-(3,3,3-trifluoropropoxy)biphenyl-4-yl]propanoic acid] | 6.60 | –
10 | – | 9.00 | – | CCCCCCCNC(=O)N(C)c1cccc(-c2ccc(CCC(=O)O)cc2OCc2ccc(F)cc2)c1 [Example 44, 3-[2-(4-fluorobenzyloxy)-3′-(3-heptyl-1-methylureido)biphenyl-4-yl]propanoic acid] | 6.00 | 0.008 nM

Second part, the molecule before the results:

Row | Compound | pKd (PPARδ) | pKd (PPARγ) | melting point | pKd (PPARα) | AC50 [1]
11 | CN(C(=O)Nc1ccc2ccccc2c1)c1cccc(-c2ccc(CCC(=O)O)cc2)c1 [Example 7, 3-[3′-(1-methyl-3-naphthalen-2-ylureido)biphenyl-4-yl]propanoic acid] | – | – | 170 to 171 °C | – | –
12 | CN(C(=O)Nc1ccc(OCc2ccccc2)cc1)c1cccc(-c2ccc(CCC(=O)O)cc2)c1 [Example 13, 3-{3′-[3-(4-benzyloxyphenyl)-1-methylureido]biphenyl-4-yl}propanoic acid] | 5.70 | 8.70 | 173.5 to 175 °C | – | –
13 | CCCCCCCNC(=O)N(C)c1cccc(-c2ccc(CCC(=O)O)cc2OCCC(C)C)c1 [Example 16, 3-[3′-(3-heptyl-1-methylureido)-2-(3-methylbutoxy)biphenyl-4-yl]propanoic acid] | – | 9.00 | – | 6.00 | 0.008 nM
14 | CCCCCCCNC(=O)N(C)c1cccc(-c2ccc(CCC(=O)O)cc2OCCCC)c1 [Example 26, 3-[2-butoxy-3′-(3-heptyl-1-methylureido)biphenyl-4-yl]propanoic acid] | 6.00 | 9.60 | – | 6.60 | 0.005 nM
15 | CCCCOc1ccc(NC(=O)N(CC)c2cccc(-c3ccc(CCC(=O)O)cc3)c2)cc1 [Example 34, 3-{3′-[3-(4-butoxyphenyl)-1-ethylureido]biphenyl-4-yl}propanoic acid] | 8.10 | 8.70 | – | 6.30 | –
16 | CCCCCCCNC(=O)N(C)c1cccc(-c2ccc(CCC(=O)O)cc2OCCCC(F)(F)F)c1 [Example 38, 3-[3′-(3-heptyl-1-methylureido)-2-(4,4,4-trifluorobutoxy)biphenyl-4-yl]propanoic acid] | – | 9.00 | – | 6.60 | 0.006 nM
17 | CCCCCNC(=O)N(C)c1cccc(-c2ccc(CCC(=O)O)cc2OCCCC)c1 [Example 41, 3-[2-butoxy-3′-(1-methyl-3-pentylureido)biphenyl-4-yl]propanoic acid] | 5.70 | 9.30 | – | 7.22 | 0.008 nM
